In patent US7396538B2, “Apparatus and method for delivery of mitomycin through an eluting biocompatible implantable medical device” (Endovascular Devices, Inc., priority 2002, dated 2008):
Values after ≈ are worked out from the molar mass of the structure shown.

Tested on: vascular smooth muscle cell
Test: vascular smooth muscle cell (VSMC) proliferation study at varying concentrations of mitomycin C
Assay type: cell-based
Method: One example of a study was conducted to investigate the vascular smooth muscle cell proliferation (VSMC) from varying concentrations of the mitomycin C. […] A lower dosage of mitomycin C would still permit the advance of VSMC and contribute to increased restenosis and […]. Depending upon the observed biological effects from potentially cytotoxic local tissue levels, a higher concentration of mitomycin C may also still be sufficient.

CO[C@@]12[C@H](COC(N)=O)C3=C(C(=O)C(C)=C(N)C3=O)N1C[C@@H]1N[C@@H]12 [mitomycin C]
IC50 (Rattus norvegicus, extrapolation from a logarithmic curve of VSMC inhibition at various dosages, read-out: concentration at which about 50% VSMC inhibition occurs): ~0.067 µg/mL (≈ 0.2 µM)
VSMC inhibited (dose of about 0.334 micrograms per milliliter): about 66%
VSMC inhibited (dose of about 25.1 micrograms per milliliter): about 98%
